By boiling point is commonly meant the temperature at which the vapour pressure of the liquid equals the pressure above it. Broadly, the melting point is the temperature, or range, at which the solid turns liquid.

Conditions in the first series: not given
In the case of `O=C(O)C1=CCCc2ccccc21`, the boiling point was 306 °C and the melting point came out at 125 °C.
The compound `C#CCCCCCCCCCCCCCCCC` had a boiling point of 313 °C and a melting point of 22.5 °C.
`O=S(=O)(O)c1ccc2ccc(S(=O)(=O)O)cc2c1` displayed a melting point of 199 °C.
The compound `CCOC(=O)c1ccccc1Cl` yielded a boiling point of 243 °C.
`CC(C)[C@@H](C)CC[C@@H](C)[C@H]1CC[C@H]2C3=CC[C@H]4C[C@@H](O)CC[C@]4(C)[C@H]3CC[C@]12C`: the melting point is 146 °C.
With `C(=C(c1ccccc1)c1ccccc1)c1ccccc1`, the melting point stood at 72.5 °C.
As to `O=C(O)c1cccc(Cl)c1`, the melting point was determined as 158 °C and the ready biodegradability result is recorded as “readily biodegradable”.
In turn, `CCCCCCCC(=O)OCC` returned a boiling point of 208 °C, a log10 Koc (L/kg) of 3.02 and a melting point of -43.1 °C.
In the case of `CC1(C)[C@@H]2CC[C@]1(C)[C@H](O)C2`, the log10 vapour pressure (mmHg) is -1.3.
With `O=C(CO)[C@@H](O[C@H]1O[C@H](CO)[C@@H](O)[C@H](O)[C@H]1O)[C@H](O)[C@H](O)CO`, the melting point was 168 °C.
For `NCCCCCO`, the boiling point is 222 °C and the melting point was 38.5 °C.
Compound `C=CCCCCCCCCCCCCCCCC` gave a log10 vapour pressure (mmHg) of -4.17 and a melting point of 17.5 °C.
`O=C(O)/C(=C\c1ccccc1)c1ccccc1` had a melting point of 172 °C.
Turning to `C=CCCCCCCC=C`, the boiling point was 167 °C.
For the compound `COc1cc(N)ccc1C`, the boiling point came out at 251 °C and the melting point was 56.5 °C.
For `CC(C)(C)C(O)/C(=C\c1ccc(Cl)cc1Cl)n1cncn1` (stereo not drawn), the log10 vapour pressure (mmHg) was -4.43 and the melting point amounted to 147 °C.
`CCCCC(C)Br` (stereo not drawn) returned a boiling point of 144 °C and a log10 vapour pressure (mmHg) of 0.86.
Turning to `CCCCN(CCN(CCCC)C(=O)N1CCOCC1)C(=O)N1CCOCC1`, the melting point is 41.5 °C.
On the same count and under the same terms, with `O=C1c2ccc(O)cc2OC(c2ccc(O)c(O)c2)C1O` (stereo not drawn) the figure was 227 °C.
Regarding `CCCOC(=O)CCl`, the boiling point is 161 °C.
Consider `CCCSCC`, for which the boiling point was determined as 119 °C, the log10 vapour pressure (mmHg) worked out at 1.27 and the melting point is -117 °C.
`CN(N)c1ccccc1` gave a boiling point of 228 °C.
On to `O=S(=O)(F)Cc1ccccc1`, for which the melting point came out at 93 °C.
Consider `Clc1ccc(Oc2cc(Cl)ccc2Cl)cc1`, for which the log10 vapour pressure (mmHg) was -3.76.
As for `CC1=CCC(C)C1` (stereo not drawn), the boiling point was determined as 93.2 °C.
`Cc1cccc(CN)c1` showed a boiling point of 204 °C.
For `CCN(CC)CCn1cnc2c1c(=O)n(C)c(=O)n2C`, the melting point is 75 °C.
Compound `ICc1ccccc1` showed a log10 vapour pressure (mmHg) of -0.903 and a melting point of 24.5 °C.
With `CCC(C)SC(C)CC` (stereo not drawn), the boiling point was 165 °C.
Compound `Cc1ccc2nccnc2c1` displayed a boiling point of 249 °C and a melting point of 218 °C.
The corresponding values for `CC(C)(F)F` are -0.4 °C and -105 °C.
As for `Cc1c(N)cc([N+](=O)[O-])cc1[N+](=O)[O-]`, the melting point worked out at 174 °C.
Consider `CC1CCSC1` (stereo not drawn), for which the boiling point is 139 °C.
On to `NC1CCCC1`, for which the boiling point is 108 °C and the melting point was -82.7 °C.
On to `CC(C)C(c1ccccc1)C(C)C`, for which the boiling point was determined as 221 °C and the melting point was -24.5 °C.
On to `O=C1OC(c2cc(Br)c(O)c(Br)c2)(c2cc(Br)c(O)c(Br)c2)c2ccccc21`, for which the melting point stood at 296 °C.
In turn, `COC(=O)Nc1cccc(OC(=O)Nc2cccc(C)c2)c1` showed a log10 Koc (L/kg) of 3.38, a log10 vapour pressure (mmHg) of -11 and a melting point of 143 °C.
`O=C(O)c1ccc(C(=O)O)s1` returned a melting point of 359 °C.
`CC(C)(O)c1ccccc1` yielded a boiling point of 202 °C and a melting point of 36 °C.
`CCn1cc(C(=O)O)c(=O)c2cc(F)c(N3CCNCC3)nc21` registered a melting point of 222 °C.
Compound `C=C1CC[C@H]2O[C@]2(C)CC[C@@H]2[C@@H]1CC2(C)C` returned a melting point of 62.5 °C.
`CCOC(=O)CCCCCCCC(=O)OCC` came in with a boiling point of 292 °C and a melting point of -18.5 °C.
Turning to `S=C=S`, the boiling point came to 46 °C, the log10 Henry constant (atm·m³/mol) was -1.84, the log10 Koa stood at 2.28 and the log10 Koc (L/kg) was 2.34. For the same compound, the log10 vapour pressure (mmHg) was 2.56 and the melting point is -112 °C.
In the case of `CCOC(=O)CCC(C)=O`, the boiling point turned out to be 206 °C and the log10 vapour pressure (mmHg) was -0.682.
Take `CCc1ccco1`: the boiling point was determined as 92 °C.
Same read-out and setting: with `C=C(C)C(=O)OCC(F)(F)C(F)F` the figure was 124 °C.
The compound `O=c1c(Cl)c(Cl)cnn1-c1ccccc1` had a log10 vapour pressure (mmHg) of -4.05 and a melting point of 162 °C.
`CCCCCC(C)(C)CC` displayed a boiling point of 161 °C.
For the compound `CCCCCCCCCCCCCCCCOC(=O)CCCCCCCCCCCCC`, the ready biodegradability entry is on record as “readily biodegradable”.
For `CC(C)(C)c1ccc(O)cc1`, the ready biodegradability entry is given as “not readily biodegradable”.
For the compound `CCCc1ccco1`, the boiling point came out at 115 °C.
For `CCc1ccc(-c2ccccc2)cc1`, the ready biodegradability entry is on record as “not readily biodegradable”.
With `CCCCCN1C(=O)c2ccc([N+](=O)[O-])cc2C1=O`, the ready biodegradability entry is reported as “readily biodegradable”.
In the case of `Nc1ccc(O)c([N+](=O)[O-])c1`, the melting point was 126 °C.
For `CCCCOC(=O)CCCCCCCCC(=O)OCCCC`, the boiling point was 344 °C, the log10 vapour pressure (mmHg) was -5.33 and the melting point was -10 °C.
`Clc1ccc(-c2cc(Cl)c(Cl)c(Cl)c2Cl)cc1` gave a melting point of 98 °C.
`CCCCNC(=O)n1c(NC(=O)OC)nc2ccccc21` gave a log10 Henry constant (atm·m³/mol) of -11.3, a log10 Koc (L/kg) of 2.71 and a log10 vapour pressure (mmHg) of -8.43.
Turning to `CCOc1cccc(C=O)c1O`, the boiling point stood at 264 °C and the melting point was 67 °C.
Regarding `CC1CCCC(C)(C)C1=O` (stereo not drawn), the boiling point stood at 178 °C and the melting point was -31.8 °C.
With `CC(CCC(=O)O)c1ccccc1` (stereo not drawn), the melting point is 13 °C.
Take `CC=CC=CC=CC=O`: the melting point turned out to be 56.8 °C.
Compound `FC(F)C(F)(F)OCC(Cn1cncn1)c1ccc(Cl)cc1Cl` (stereo not drawn) gave a log10 vapour pressure (mmHg) of -5.87 and a melting point of 6 °C.
Turning to `O=S1(=O)OCC2C(CO1)C1(Cl)C(Cl)=C(Cl)C2(Cl)C1(Cl)Cl` (stereo not drawn), the log10 vapour pressure (mmHg) is -6.55 and the melting point worked out at 182 °C.
For `NS(=O)(=O)c1ccc(SCCCCO)c(F)c1`, the melting point came to 104 °C.
In turn, `ClCCN(CCCl)c1ccc2ccccc2c1` had a melting point of 55 °C.
For the compound `NC(=O)c1ccccc1N`, the boiling point amounted to 300 °C.
For the compound `CCCCCCCOC(=O)CCC`, the boiling point was found to be 226 °C and the melting point was -57.5 °C.

Still in this series, the particulars now being: fish.
In turn, `S=C=S` showed a log10 BCF of 1.29.
In turn, `CC(C)(C)c1ccc(O)cc1` yielded a log10 BCF of 1.83 and a log10 biotransformation half-life (days) of -0.87.
`CCc1ccc(-c2ccccc2)cc1` showed a log10 BCF of 2.82 and a log10 biotransformation half-life (days) of 0.06.
Consider `Clc1ccc(-c2cc(Cl)c(Cl)c(Cl)c2Cl)cc1`, for which the log10 biotransformation half-life (days) is 2.36.
Take `FC(F)C(F)(F)OCC(Cn1cncn1)c1ccc(Cl)cc1Cl` (stereo not drawn): the log10 biotransformation half-life (days) stood at 1.23.
The compound `CCOP(=S)(OCC)Oc1cc(-c2ccccc2)on1` had a log10 BCF of 2.61 and a log10 biotransformation half-life (days) of 1.05.
